Legend:
MOLT-4 = assay: NCI 60 five-dose screen MOLT-4; type: cell-based; settings: Homo sapiens
full NCI 60 cell panel = assay: NCI 60 Cell One-dose screen; type: cell-based, human; settings: single high dose 10^−5 M, NCI 60 panel
Description: Compounds were submitted to the NCI 60 Cell screen and tested at a single high dose (10^−5 M) in the full NCI 60 cell panel (see the following reference for details of using NCI 60 human tumor cell lines for screening anticancer drugs: Shoemaker R H. The NCI60 human tumor cell line anticancer drug screen. Nature Rev Cancer 2006; 6: 813-23). The One-dose data is reported as a mean graph of the percent growth of treated cells. The number reported for the One-dose assay is growth relative to the no-drug control, and relative to the time zero number of cells. This allows detection of both growth inhibition (values between 0 and 100) and lethality (values less than 0). For example, a value of 100 means no growth inhibition. A value of 40 would mean 60% growth inhibition. A value of 0 means no net growth over the course of the experiment. A value of −40 would mean 40% lethality. A value of −100 means all cells are dead. FIGS. 1-8 show the mean graph of percent growth against the NCI-60 cell panel for NUCC-0226674, NUCC-0226679, NUCC-0226680, NUCC-0226683, NUCC-0226689, NUCC-0226694, NUCC-0226695, and NUCC-0226698.

SNB-75 = assay: NCI 60 five-dose screen SNB-75; type: cell-based; settings: Homo sapiens
UACC-257 = assay: NCI 60 five-dose screen UACC-257; type: cell-based; settings: Homo sapiens
786-0 = assay: NCI 60 five-dose screen 786-0; type: cell-based; settings: Homo sapiens
SF-539 = assay: NCI 60 five-dose screen SF-539; type: cell-based; settings: Homo sapiens
SK-MEL-28 = assay: NCI 60 five-dose screen SK-MEL-28; type: cell-based; settings: Homo sapiens
MDA-MB-231/ATCC = assay: NCI 60 five-dose screen MDA-MB-231/ATCC; type: cell-based; settings: Homo sapiens
COLO 205 = assay: NCI 60 five-dose screen COLO 205; type: cell-based; settings: Homo sapiens
NCI-H460 = assay: NCI 60 five-dose screen NCI-H460; type: cell-based; settings: Homo sapiens
IGROV1 = assay: NCI 60 five-dose screen IGROV1; type: cell-based; settings: Homo sapiens
SN12C = assay: NCI 60 five-dose screen SN12C; type: cell-based; settings: Homo sapiens
LOX IMVI = assay: NCI 60 five-dose screen LOX IMVI; type: cell-based; settings: Homo sapiens
UACC-62 = assay: NCI 60 five-dose screen UACC-62; type: cell-based; settings: Homo sapiens
A549/ATCC = assay: NCI 60 five-dose screen A549/ATCC; type: cell-based; settings: Homo sapiens
NCI-H226 = assay: NCI 60 five-dose screen NCI-H226; type: cell-based; settings: Homo sapiens
UO-31 = assay: NCI 60 five-dose screen UO-31; type: cell-based; settings: Homo sapiens
HOP-62 = assay: NCI 60 five-dose screen HOP-62; type: cell-based; settings: Homo sapiens
RXF 393 = assay: NCI 60 five-dose screen RXF 393; type: cell-based; settings: Homo sapiens
HCC-2998 = assay: NCI 60 five-dose screen HCC-2998; type: cell-based; settings: Homo sapiens
SNB-19 = assay: NCI 60 five-dose screen SNB-19; type: cell-based; settings: Homo sapiens
U251 = assay: NCI 60 five-dose screen U251; type: cell-based; settings: Homo sapiens
[1] = read-out: LC50 (the source's name) (converted)

Compound: O=c1ccc(Cn2c(C(F)(F)F)cc3c(Cl)ncnc32)c[nH]1 [NUCC-0226698]
- GI50 (MOLT-4): 3.24 µM
- IC50 (MOLT-4): 4.79 µM
- IC (TGI) (MOLT-4): 17 µM
- CC50 (MOLT-4; read-out: LC50 (the source's name)): ≥ 100 µM
- growth inhibition in the One-Dose Screen (full NCI 60 cell panel): significant growth inhibition
- GI50 (SNB-75): 10.7 µM
- IC50 (SNB-75): 24 µM
- IC (TGI) (SNB-75): 23.4 µM
- CC50 (SNB-75; [1]): 50.1 µM
- GI50 (UACC-257): 3.16 µM
- IC50 (UACC-257): 6.46 µM
- IC (TGI) (UACC-257): 12.9 µM
- CC50 (UACC-257; [1]): 75.9 µM
- GI50 (786-0): 43.7 µM
- IC50 (786-0): 72.4 µM
- IC (TGI) (786-0): 100 µM
- CC50 (786-0; [1]): ≥ 100 µM
- GI50 (SF-539): 17.4 µM
- IC50 (SF-539): 32.4 µM
- IC (TGI) (SF-539): 40.7 µM
- CC50 (SF-539; [1]): 95.5 µM
- GI50 (SK-MEL-28): 3.89 µM
- IC50 (SK-MEL-28): 7.59 µM
- IC (TGI) (SK-MEL-28): 18.6 µM
- CC50 (SK-MEL-28; [1]): 66.1 µM
- GI50 (MDA-MB-231/ATCC): 4.68 µM
- IC50 (MDA-MB-231/ATCC): 10 µM
- IC (TGI) (MDA-MB-231/ATCC): 18.2 µM
- CC50 (MDA-MB-231/ATCC; [1]): 57.5 µM
- GI50 (COLO 205): 87.1 µM
- IC50 (COLO 205): 100 µM
- IC (TGI) (COLO 205): 100 µM
- CC50 (COLO 205; [1]): ≥ 100 µM
- GI50 (NCI-H460): 12 µM
- IC50 (NCI-H460): 16.6 µM
- IC (TGI) (NCI-H460): 36.3 µM
- CC50 (NCI-H460; [1]): ≥ 100 µM
- GI50 (IGROV1; IGROV-1): 2.29 µM
- IC50 (IGROV1; IGROV-1): 3.72 µM
- IC (TGI) (IGROV1; IGROV-1): 6.03 µM
- CC50 (IGROV1; IGROV-1, read-out: LC50 (the source's name) (converted)): 26.3 µM
- GI50 (SN12C): 6.46 µM
- IC50 (SN12C): 11.7 µM
- IC (TGI) (SN12C): 23.4 µM
- CC50 (SN12C; [1]): 69.2 µM
- GI50 (LOX IMVI): 1.66 µM
- IC50 (LOX IMVI): 2.88 µM
- IC (TGI) (LOX IMVI): 3.09 µM
- CC50 (LOX IMVI; [1]): 5.89 µM
- GI50 (UACC-62): 5.5 µM
- IC50 (UACC-62): 11 µM
- IC (TGI) (UACC-62): 20 µM
- CC50 (UACC-62; [1]): 53.7 µM
- GI50 (A549/ATCC): 64.6 µM
- IC50 (A549/ATCC): 100 µM
- IC (TGI) (A549/ATCC): 100 µM
- CC50 (A549/ATCC; [1]): ≥ 100 µM
- GI50 (NCI-H226): 31.6 µM
- IC50 (NCI-H226): 100 µM
- IC (TGI) (NCI-H226): 100 µM
- CC50 (NCI-H226; [1]): ≥ 100 µM
- GI50 (UO-31): 5.01 µM
- IC50 (UO-31): 14.1 µM
- IC (TGI) (UO-31): 19.1 µM
- CC50 (UO-31; [1]): 47.9 µM
- GI50 (HOP-62): 46.8 µM
- IC50 (HOP-62): 100 µM
- IC (TGI) (HOP-62): 100 µM
- CC50 (HOP-62; [1]): ≥ 100 µM
- GI50 (RXF 393): 11.2 µM
- IC50 (RXF 393): 35.5 µM
- IC (TGI) (RXF 393): 32.4 µM
- CC50 (RXF 393; [1]): 91.2 µM
- GI50 (HCC-2998): 2.88 µM
- IC50 (HCC-2998): 5.25 µM
- IC (TGI) (HCC-2998): 10 µM
- CC50 (HCC-2998; [1]): 34.7 µM
- GI50 (SNB-19): 20.9 µM
- IC50 (SNB-19): 39.8 µM
- IC (TGI) (SNB-19): 58.9 µM
- CC50 (SNB-19; [1]): ≥ 100 µM
- GI50 (U251; U-251): 22.4 µM
- IC50 (U251; U-251): 33.1 µM
- IC (TGI) (U251; U-251): 69.2 µM
- CC50 (U251; U-251, read-out: LC50 (the source's name) (converted)): ≥ 100 µM

Source: US20240109903A1, “SUBSTITUTED HETEROCYCLES FOR TREATING CANCER” (Northwestern University, priority 2022, published 2024)
